{
  "source": "patent US8440648B2",
  "about": "“Methods and compositions for treatment of intraepithelial neoplasia” (Erimos Pharmaceuticals LLC, priority 2004, dated 2013)",
  "key": {"[1]": {"tested_on": "Cervical Intraepithelial Neoplasia (CIN)", "experiment": "Pilot clinical trial of intravaginal M4N: preliminary efficacy from cervical biopsies", "format": "in vivo, women", "conditions": "three patients, 3 weekly doses of 1% M4N in white petrolatum", "text": "(§1) This study was designed to look at the systemic and local toxicity of tetra-O-methyl NDGA (M4N) administered intravaginally to women once a week for three weeks. Patients, at the time of screening, had visible cervical lesions, were HPV positive, and had previous biopsy confirmed Cervical Intraepithelial Neoplasia (CIN). Cervical biopsies were taken at Day 1 and follow up biopsies were taken at Day 71. Five patients have been enrolled in the study, and three patients have completed the study through Day 71.\nPreliminary efficacy data was collected from cervical biopsies at Day 1 and Day 71 from the three patients that completed the Day 71 visit after receiving 3 doses of the 1% formulation of M4N."}, "[2]": {"experiment": "Pilot clinical trial of intravaginal M4N: serum levels", "format": "in vivo", "conditions": "after intravaginal administration of the 1% formulation in white petrolatum, women", "text": "as §1\n(§2) The first four patients received 5 mL of a 1% formulation of M4N in white petrolatum once weekly for each of three weekly doses. […] One patient received 5 mL of a 2% M4N formulation in white petrolatum at each of two weekly doses to date. […] The relationship to the study drug administration is unknown."}, "[3]": {"tested_on": "New Zealand White rabbits", "experiment": "Fourteen day rabbit intravaginal topical toxicology study (local and systemic toxicity)", "conditions": "M4N 20 mg/g in white petrolatum", "experimental": "This study was designed to look at the local and systemic toxicity of tetra-O-methyl NDGA (M4N) administered intravaginally in New Zealand White rabbits for 14 days. Rabbits were dosed daily with 1 mL of a white petrolatum formulation of M4N (20 mg/g) or placebo. Ten female rabbits (5 per group) were dosed. Local effects of drug were scored using the Draize scoring system daily, and gross pathology and histopathology was obtained at necropsy on termination of the dosing period."}, "[4]": {"experiment": "Serum levels of M4N in the fourteen day rabbit intravaginal study", "format": "in vivo, New Zealand White rabbits", "conditions": "M4N 20 mg/g in white petrolatum, 1 mL intravaginally daily, rabbits; levels inconsistent, minimal absorption", "procedure": "Fourteen Day Rabbit Intravaginal Topical Toxicology Study. […] Ten female rabbits (5 per group) were dosed."}, "[5]": {"tested_on": "women with Cervical Intraepithelial Neoplasia", "experiment": "Pilot clinical trial of intravaginal M4N: systemic and local toxicity", "format": "in vivo", "text": "as §1, §2"}, "[6]": {"conditions": "1 mL intravaginally daily for 14 days"}},
  "data": [
    {"smiles": "COc1ccc(C[C@@H](C)[C@@H](C)Cc2ccc(OC)c(OC)c2)cc1OC", "note": "[M4N, meso-1,4-bis(3,4-dimethoxyphenyl)-2,3-dimethylbutane]", "values": [
      {"measurement": "Response in cervical biopsies, Day 71 versus Day 1", "setting": "[1]", "result": "one patient had a complete response, one patient had a partial response, and one patient showed disease progression"},
      {"measurement": "Serum levels", "setting": "[2]", "result": "below limit of quantification"},
      {"measurement": "Vaginal observations: mild edema, animals affected", "setting": "[3]; [6]", "result": "2/5"},
      {"measurement": "Vaginal observations: mild erythema, animals affected", "setting": "[3]; [6]", "result": "3/5"},
      {"measurement": "Survival until scheduled termination", "setting": "[3]; 1 mL intravaginally daily for 14 days, rabbits", "result": "All animals survived until scheduled termination"},
      {"measurement": "Vaginal observations: minimal edema, animals affected", "setting": "[3]; 1 mL intravaginally daily for 14 days, control 2/5", "result": "1/5"},
      {"measurement": "Weekly clinical and twice daily cage-side observations", "setting": "[3]; intravaginally daily for 14 days", "result": "No findings were noted"},
      {"measurement": "Clinical pathology findings", "setting": "[3]; intravaginally daily for 14 days, considered incidental", "result": "lower absolute basophil counts, and ALT values"},
      {"measurement": "Histopathology findings", "setting": "[3]; intravaginally daily for 14 days, relation to drug unknown", "result": "in one M4N-treated rabbit, heterophil infiltrates were seen in the vaginal mucosa"},
      {"measurement": "Serum level at peak concentration", "setting": "[4]", "result": "less than 10 ng/mL"},
      {"measurement": "Irritation or toxicity", "setting": "[5]; 5 mL of 1% M4N in white petrolatum intravaginally once weekly, three doses, four patients", "result": "No irritation or toxicity was reported"},
      {"measurement": "Vaginal irritation or toxicity", "setting": "[5]; 5 mL of 2% M4N in white petrolatum intravaginally, two weekly doses, one patient", "result": "No vaginal irritation or toxicity was reported"},
      {"measurement": "Vulvar irritation", "setting": "[5]; 5 mL of 2% M4N in white petrolatum intravaginally, two weekly doses, one patient, relationship to drug unknown", "result": "minor vulvar irritation was reported"}
    ]}
  ]
}
